Measured values from PMC4350872, “The Inhibitory Effect of Kakkonto, Japanese Traditional (Kampo) Medicine, on Brain Penetration of Oseltamivir Carboxylate in Mice with Reduced Blood-Brain Barrier Function” (Evidence-based Complementary and Alternative Medicine : eCAM, 2015).
Where two headings read alike, the source gives them in different places.

Assays:
[1] = test system: multidrug resistance protein (MRP) 4; set-up: method as in PMID 19029202; conditions: cited from earlier work
[2] = test system: organic anion transporter (OAT) 3; set-up: method as in PMID 19029202; conditions: cited from earlier work
[3] = Plasma and cerebral concentrations of oseltamivir and OC after oral administration of OP; type: in vivo, C57BL/6 mice; conditions: OP 300 mg/kg p.o.; for AUC(0-t): C57BL/6, mouse, plasma, po, 300 mg/kg, read-out: AUC0–120 Plasma (converted); for mean brain-to-plasma ratio (BPR): mean AUCbrain / mean AUCplasma
Procedure: OP (300 mg/kg in 0.2 mL saline) was orally administered 4 h after the third injection of LPS. […] The brain tissue of mice was rapidly removed after the decapitation and rinsed in ice-cold PBS. Three to 9 mice were used at each sampling time point in each group.
Oseltamivir and OC levels in plasma and brain tissues were quantified by HPLC, as described in our previous study. Blood samples collected from the jugular vein were centrifuged to obtain plasma at 4°C (2,000 ×g, 15 min). Brain tissue samples were homogenized in 3.5 mL PBS/g tissue and centrifuged at 4°C (12,000 ×g, 10 min). Oseltamivir and OC were extracted from the resulting supernatant by solid-phase extraction (SPE) using Oasis MCX extraction cartridges (1 cc/30 mg, Waters, Milford, MA, USA) conditioned with 1 mL of methanol followed by 1 mL water. The supernatant sample (1 mL) was drawn through the cartridge and the cartridge was washed with 1 mL of 2% formic acid/water, followed by methanol and 0.005% ammonium hydroxide/methanol. The analytes were eluted with 3 mL of 5% ammonium hydroxide/methanol and evaporated to dryness under nitrogen at 40°C.
The HPLC system consisted of a pump (LC-10ADvp, Shimadzu Corp., Kyoto, Japan), degasser (DGU-12A, Shimadzu Corp.), column (Zorbax SB-CN 5 μm particle size, 4.6 × 250 mm, Agilent Technologies, CA, USA), column oven (CTO-10A, Shimadzu Corp.), and UV absorbance detector (SPD-10AV, Shimadzu Corp.). […] The column temperature was 50°C and the detector was operated at absorbance wavelength of 215 nm.

P-glycoprotein (P-gp) = test system: P-glycoprotein (P-gp); set-up: method as in PMID 19029202; conditions: cited from earlier work
[4] = set-up: method as in PMID 23881998; conditions: FDA Adverse Event Reporting System 1999 to 2011; cited from earlier work
[5] = Kak group (LPS + kakkonto 125 mg/kg p.o.)
[6] = Mao group (LPS + maoto 125 mg/kg p.o.)

| Structure (SMILES) | substrate for MRP4 [1] | substrate for OAT3 [2] | AUC(0-t) ([3]; Con group (LPS + saline p.o.)) [ng·h/mL] | AUC(0-t) [3, 5] [ng·h/mL] | AUC(0-t) [3, 6] [ng·h/mL] | AUC0–120 Brain ([3]; Con group (LPS + saline p.o.)) [min·μg/g brain] | mean brain-to-plasma ratio (BPR) ([3]; Con group) [μL/g brain] | AUC0–120 Brain [3, 5] [min·μg/g brain] | mean brain-to-plasma ratio (BPR) ([3]; Kak group) [μL/g brain] | AUC0–120 Brain [3, 6] [min·μg/g brain] | mean brain-to-plasma ratio (BPR) ([3]; Mao group) [μL/g brain] | substrate for efflux transporter P-gp (P-glycoprotein (P-gp)) | odds ratio, abnormal behavior [4] | odds ratio, delirium [4] |
| --- | --- | --- | --- | --- | --- | --- | --- | --- | --- | --- | --- | --- | --- | --- |
| CCC(CC)O[C@@H]1C=C(C(=O)O)C[C@H](N)[C@H]1NC(C)=O [OC, oseltamivir carboxylate] | substrate | substrate | 12700 | 20000 | 14300 | 16.06 | 21.08 | 5.98 | 4.98 | 18.95 | 22.12 |  |  |  |
| CCOC(=O)C1=C[C@@H](OC(CC)CC)[C@H](NC(C)=O)[C@@H](N)C1 [Oseltamivir, oseltamivir] |  |  | 32500 | 84400 | 62500 | 79.35 | 40.70 | 200.21 | 39.52 | 119.92 | 31.98 | substrate |  |  |
| CCOC(=O)C1=C[C@@H](OC(CC)CC)[C@H](NC(C)=O)[C@@H](N)C1 [Tamiflu, Oseltamivir phosphate] |  |  |  |  |  |  |  |  |  |  |  |  | 29.35 | 13.50 |
